The source of these data is ChEMBL document CHEMBL3046948, “Synthesis and SAR investigation of natural phenylpropene-derived methoxylated cinnamaldehydes and their novel Schiff bases as potent antimicrobial and antioxidant agents” (2013).

Values after ≈ are worked out from the molar mass of the structure shown. Active and inactive are the calls of the source. The rule behind the calls is not given here.

Common to all, as to type: functional
The test system of one assay is Pichia kudriavzevii. Put plainly: Antimicrobial activity against Pichia kudriavzevii MTCC 231 assessed as growth inhibition after 24 hr by broth microdilution method. (In general: In broth dilution the organism is exposed to a series of concentrations in liquid medium.)
Another assay concerns Candida albicans. Put plainly: Antimicrobial activity against Candida albicans MTCC 3017 assessed as growth inhibition after 24 hr by broth microdilution method.
For the next assay, the system named is Pseudomonas aeruginosa. Briefly: Antimicrobial activity against Pseudomonas aeruginosa MTCC 424 assessed as growth inhibition after 24 hr by broth microdilution method.
Another assay concerns Aspergillus parasiticus. Briefly: Antimicrobial activity against Aspergillus parasiticus MTCC 2797 assessed as growth inhibition after 5 days by broth microdilution method.
A further assay concerns Bacillus subtilis. Briefly: Antimicrobial activity against Bacillus subtilis MTCC 121 assessed as growth inhibition after 24 hr by broth microdilution method.
In a further assay the test system is Escherichia coli. Briefly: Antimicrobial activity against Escherichia coli MTCC 43 assessed as growth inhibition after 24 hr by broth microdilution method.
For the next assay, the system named is Klebsiella pneumoniae. Briefly: Antimicrobial activity against Klebsiella pneumoniae MTCC 109 assessed as growth inhibition after 24 hr by broth microdilution method.
The next assay has as its system Burkholderia cepacia. Briefly: Antimicrobial activity against Burkholderia cepacia MTCC 438 assessed as growth inhibition after 24 hr by broth microdilution method.
For another assay, the system named is Micrococcus luteus. Put plainly: Antimicrobial activity against Micrococcus luteus MTCC 2470 assessed as growth inhibition after 24 hr by broth microdilution method.
For the next assay, the system named is Enterobacter cloacae. Briefly: Antimicrobial activity against Enterobacter cloacae MTCC 509 assessed as growth inhibition after 24 hr by broth microdilution method.
A further assay has as its system Trichophyton rubrum. Briefly: Antimicrobial activity against Trichophyton rubrum MTCC 296 assessed as growth inhibition after 5 days by broth microdilution method.
For a further assay, the system named is Aspergillus niger. Briefly: Antimicrobial activity against Aspergillus niger MTCC 404 assessed as growth inhibition after 5 days by broth microdilution method.
For the next assay, the system named is Aspergillus sydowii. Briefly: Antimicrobial activity against Aspergillus sydowii MTCC 4335 assessed as growth inhibition after 5 days by broth microdilution method.
A further assay has as its system Staphylococcus aureus. Briefly: Antimicrobial activity against Staphylococcus aureus MTCC 3160 assessed as growth inhibition after 24 hr by broth microdilution method.

As to `Cc1ccc(/C=C/C=O)c([N+](=O)[O-])c1`, the MIC result in the assay on Pichia kudriavzevii, in the assay with Candida albicans, in the assay on Aspergillus parasiticus, in the assay on Trichophyton rubrum, with Aspergillus niger and with Aspergillus sydowii was “inactive” in each case. For the same molecule, the minimum inhibitory concentration (MIC) with Pseudomonas aeruginosa (MTCC 424, 24 h) was 2.61 mM (≈ 499 µg/mL); in the assay with Bacillus subtilis (MTCC 121, 24 h) it was 2.61 mM (≈ 499 µg/mL); with Escherichia coli (MTCC 43, 24 h), 2.61 mM (≈ 499 µg/mL); in the assay with Klebsiella pneumoniae (MTCC 109, 24 h), 10.5 mM (≈ 2000 µg/mL); in the assay with Burkholderia cepacia (MTCC 438, 24 h), 2.61 mM (≈ 499 µg/mL); with Micrococcus luteus (MTCC 2470, 24 h) it was 2.61 mM (≈ 499 µg/mL). Besides, the minimal inhibitory concentration (MIC) was found to be 10.5 mM (≈ 2000 µg/mL) in the assay with Enterobacter cloacae (MTCC 509, 24 h) and 10.5 mM (≈ 2000 µg/mL) with Staphylococcus aureus (MTCC 3160, 24 h).
On to `C/C=C/c1cc(OC)c(OC)cc1OC` [TRANS-ASARONE], for which the MIC in the assay on Pichia kudriavzevii (MTCC 231, 24 h) stood at 1.2 mM (≈ 250 µg/mL); in the assay with Candida albicans (MTCC 3017, 24 h), 0.6 mM (≈ 125 µg/mL); in the assay with Aspergillus parasiticus (MTCC 2797, 120 h) it was 1.2 mM (≈ 250 µg/mL); with Enterobacter cloacae (MTCC 509, 24 h), 9.6 mM (≈ 2000 µg/mL); with Trichophyton rubrum (MTCC 296, 120 h), 0.6 mM (≈ 125 µg/mL); in the assay with Aspergillus niger (MTCC 404, 120 h), 4.8 mM (≈ 1000 µg/mL). Besides, the MIC in the assay with Aspergillus sydowii (MTCC 4335, 120 h) was found to be 2.4 mM (≈ 500 µg/mL). For the same molecule, the MIC result with Pseudomonas aeruginosa, with Bacillus subtilis, in the assay on Escherichia coli, in the assay with Klebsiella pneumoniae, in the assay on Burkholderia cepacia and in the assay on Micrococcus luteus was “inactive” throughout. For the same molecule, the MIC result in the assay on Staphylococcus aureus is “inactive”.
With `O=C(O)/C=C/c1ccccc1` [CINNAMIC ACID], the MIC in the assay on Pichia kudriavzevii (MTCC 231, 24 h) worked out at 0.84 mM (≈ 124 µg/mL); in the assay on Candida albicans (MTCC 3017, 24 h), 0.42 mM (≈ 62.2 µg/mL); with Pseudomonas aeruginosa (MTCC 424, 24 h), 13.5 mM (≈ 2000 µg/mL); in the assay on Aspergillus parasiticus (MTCC 2797, 120 h) it was 3.37 mM (≈ 499 µg/mL); in the assay on Bacillus subtilis (MTCC 121, 24 h) it was 6.75 mM (≈ 1000 µg/mL); with Escherichia coli (MTCC 43, 24 h) it was 13.5 mM (≈ 2000 µg/mL). The MIC was 6.75 mM (≈ 1000 µg/mL) with Klebsiella pneumoniae (MTCC 109, 24 h); 6.75 mM (≈ 1000 µg/mL) in the assay on Burkholderia cepacia (MTCC 438, 24 h); 6.75 mM (≈ 1000 µg/mL) with Micrococcus luteus (MTCC 2470, 24 h); 6.75 mM (≈ 1000 µg/mL) in the assay on Enterobacter cloacae (MTCC 509, 24 h); 0.42 mM (≈ 62.2 µg/mL) in the assay on Trichophyton rubrum (MTCC 296, 120 h); 1.68 mM (≈ 249 µg/mL) in the assay on Aspergillus niger (MTCC 404, 120 h). Further, the MIC in the assay with Aspergillus sydowii (MTCC 4335, 120 h) stood at 1.68 mM (≈ 249 µg/mL); in the assay with Staphylococcus aureus (MTCC 3160, 24 h), 3.37 mM (≈ 499 µg/mL).
Consider `O=C/C=C/c1ccc2c(c1)OCO2`, for which the minimum inhibitory concentration (MIC) in the assay on Pichia kudriavzevii (MTCC 231, 24 h) came to 0.35 mM (≈ 61.7 µg/mL); in the assay with Candida albicans (MTCC 3017, 24 h) it was 0.35 mM (≈ 61.7 µg/mL); in the assay on Pseudomonas aeruginosa (MTCC 424, 24 h) it was 0.35 mM (≈ 61.7 µg/mL); in the assay with Aspergillus parasiticus (MTCC 2797, 120 h), 0.71 mM (≈ 125 µg/mL); with Bacillus subtilis (MTCC 121, 24 h), 2.84 mM (≈ 500 µg/mL); in the assay on Escherichia coli (MTCC 43, 24 h) it was 2.84 mM (≈ 500 µg/mL). Besides, the MIC in the assay on Klebsiella pneumoniae (MTCC 109, 24 h) came to 1.42 mM (≈ 250 µg/mL); with Burkholderia cepacia (MTCC 438, 24 h) it was 0.71 mM (≈ 125 µg/mL); in the assay with Micrococcus luteus (MTCC 2470, 24 h), 2.84 mM (≈ 500 µg/mL); in the assay on Enterobacter cloacae (MTCC 509, 24 h) it was 1.42 mM (≈ 250 µg/mL); with Trichophyton rubrum (MTCC 296, 120 h), 0.35 mM (≈ 61.7 µg/mL); with Aspergillus niger (MTCC 404, 120 h) it was 1.42 mM (≈ 250 µg/mL). The MIC in the assay with Aspergillus sydowii (MTCC 4335, 120 h) was determined as 0.35 mM (≈ 61.7 µg/mL); with Staphylococcus aureus (MTCC 3160, 24 h) it was 2.84 mM (≈ 500 µg/mL).
Consider `O=CCCc1ccccc1` [DIHYDROCINNAMALDEHYDE], for which the MIC in the assay with Pichia kudriavzevii (MTCC 231, 24 h) stood at 3.72 mM (≈ 499 µg/mL); with Candida albicans (MTCC 3017, 24 h) it was 3.72 mM (≈ 499 µg/mL); with Pseudomonas aeruginosa (MTCC 424, 24 h) it was 7.45 mM (≈ 1000 µg/mL); in the assay with Aspergillus parasiticus (MTCC 2797, 120 h), 14.9 mM (≈ 2000 µg/mL); in the assay on Bacillus subtilis (MTCC 121, 24 h), 7.45 mM (≈ 1000 µg/mL); with Escherichia coli (MTCC 43, 24 h), 7.45 mM (≈ 1000 µg/mL). Further, the minimal inhibitory concentration (MIC) was 7.45 mM (≈ 1000 µg/mL) with Klebsiella pneumoniae (MTCC 109, 24 h); 14.9 mM (≈ 2000 µg/mL) in the assay on Burkholderia cepacia (MTCC 438, 24 h); 7.45 mM (≈ 1000 µg/mL) in the assay on Micrococcus luteus (MTCC 2470, 24 h); 7.45 mM (≈ 1000 µg/mL) in the assay on Enterobacter cloacae (MTCC 509, 24 h); 3.72 mM (≈ 499 µg/mL) in the assay with Trichophyton rubrum (MTCC 296, 120 h); 7.45 mM (≈ 1000 µg/mL) in the assay on Aspergillus niger (MTCC 404, 120 h). Moreover, the MIC in the assay on Aspergillus sydowii (MTCC 4335, 120 h) was determined as 3.72 mM (≈ 499 µg/mL); in the assay on Staphylococcus aureus (MTCC 3160, 24 h), 14.9 mM (≈ 2000 µg/mL).
Consider `C=CCc1ccc2c(c1)OCO2` [SAFROLE], for which the MIC was determined as 6.16 mM (≈ 999 µg/mL) in the assay on Pichia kudriavzevii (MTCC 231, 24 h); 6.16 mM (≈ 999 µg/mL) in the assay on Candida albicans (MTCC 3017, 24 h); 6.16 mM (≈ 999 µg/mL) in the assay with Trichophyton rubrum (MTCC 296, 120 h). Further, the MIC entry in the assay on Pseudomonas aeruginosa, in the assay with Aspergillus parasiticus, in the assay on Bacillus subtilis, in the assay on Escherichia coli, in the assay on Klebsiella pneumoniae and in the assay on Burkholderia cepacia was “inactive” in each case. Also, the MIC entry in the assay on Micrococcus luteus, with Enterobacter cloacae, in the assay on Aspergillus niger, with Aspergillus sydowii and in the assay on Staphylococcus aureus was “inactive” in each case.

A word on the MIC: it is the lowest concentration found to suppress growth.
